Where two headings read alike, the source gives them in different places.
What was measured:
Assay type in all cases: cell-based
[1] = test system: SARS‐CoV‐2 spike protein pseudotyped lentivirus, Delta variant; experiment: organism not typed; settings: read-out: Pseudovirus assay, IC50, Delta
[2] = test system: SARS‐CoV‐2 spike protein pseudotyped lentivirus, Omicron variant; experiment: organism not typed; settings: read-out: Pseudovirus assay, IC50, Omicron
[3] = test system: SARS‐CoV‐2 spike protein pseudotyped lentivirus, D614G variant; settings: read-out: Pseudovirus assay, IC50, D614G
[4] = test system: SARS‐CoV‐2 spike protein pseudotyped lentivirus, D614G, Delta, and Omicron variants; settings: for IC50: read-out: Pseudovirus assay, IC50 values as a range over D614G, Delta, and Omicron variants

Compound	IC50 ([1]; HEK-293T)	IC50 ([2]; HEK-293T)	IC50 [3]	IC50 ([1]; mean ± SEM (n = 3))	IC50 [4]	IC50 ([2]; mean ± SEM (n = 3))	IC50 ([3]; mean ± SEM (n = 3))	activity in SARS‐CoV‐2 S‐protein and ACE2 binding (pseudovirus) assay (in words) [4]
COc1ccc2cc1Oc1ccc(cc1)C[C@H]1c3c(cc4c(c3Oc3cc5c(cc3OC)CCN(C)[C@@H]5C2)OCO4)CCN1C [Cepharantine, Cepharanthine, reference compound]	1640 ± 180 nM	1310 ± 70 nM	480 ± 90 nM	–	–	–	–	–
COc1cc2c3cc1Oc1c(OC)c(OC)cc4c1[C@@H](Cc1ccc(O)c(c1)Oc1ccc(cc1)C[C@@H]3N(C)CC2)N(C)CC4 [Compound 17, (+)‐berbamine]	2560 ± 160 nM	2290 ± 290 nM	2230 ± 490 nM	–	–	–	–	–
COc1cc2c3cc1Oc1c(O)c(OC)cc4c1[C@@H](Cc1ccc(O)c(c1)Oc1ccc(cc1)C[C@@H]3N(C)CC2)N(C)CC4 [Compound 19, (+)‐obamegine]	2610 ± 420 nM	1190 ± 160 nM	1400 ± 350 nM	–	–	–	–	–
CC(C)C[C@H](NC(=O)[C@H]1O[C@@H]1C(=O)O)C(=O)NCCCCN=C(N)N [E‐64, reference compound]	–	–	–	23100 ± 1300 nM	22700 to 23100 nM	22700 ± 1280 nM	23100 ± 630 nM	–
(+)‐aromoline [Compound 16]	–	–	670 ± 90 nM	470 ± 80 nM	470 to 660 nM	860 ± 120 nM	–	–
(±)‐Haemanthidine [Compound 1]	–	–	–	> 10000 nM	–	–	> 10000 nM	inactive at nontoxic concentration
